According to patent publication US10662204B2 (PFIZER INC., priority 2018, dated 2020):

Assays:
[1] = target: T1, GDP-loaded KRAS (1-169) G12C, C51S, C80L, C118S (Homo sapiens, UniProt P01116, C118S/C51S/C80L/G12C); assay: Mass Spectrometry Reactivity Assay (MSRA): covalent adduct of compound and KRAS G12C, Percent Modification; type: binding; settings: for MSRA (% modification) 5.0 μM 0.25 hr / MSRA (% modification) 5.0 μM 0.017 hr: 5.0 μM compound; for MSRA (% modification) 10 μM 0.25 hr / MSRA (% modification) 10 μM 0.50 hr: 10 μM compound
T1 construct: GDP-loaded KRAS (1-169) G12C, C51S, C80L, C118S
How it was run: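 Covalent labelling is measured by intact mass: deconvoluted modified and unmodified peak intensities yield percent modification. Compound, usually 5 μM or 10 μM final, reacts at room temperature with 5 μM GDP-bound KRAS G12C (1-169, C51S/C80L/C118S) in Hepes pH 7.5/NaCl/glycerol, sampled at 1, 15, 30, 60 min.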

KRAS G12C = KRAS G12C (Homo sapiens, UniProt P01116, G12C); assay: Cell Activity Assay: accumulation of GDP-bound KRAS G12C in MIAPaCa-2 cells (Raf-1 RBD capture, MSD readout); type: cell-based; set-up: endogenous in cells; host or cells: MIAPaCa-2; settings: 6 hours, assay limit is 30.00
How it was run: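 IC50 came from a 4-parameter fit of Ras signal normalized between DMSO and full-inhibition controls. Readout: lysate GTP-Ras bound to immobilized Raf-1 RBD, quantified with pan-Ras antibody and MSD electrochemiluminescence. Lysates derived from MIAPaCa-2 cells treated 6 h with serially diluted compound, 0.3% DMSO.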

SMILES | MSRA (% modification) 5.0 μM 0.25 hr [1] [%] | MSRA (% modification) 10 μM 0.25 hr [1] [%] | IC50 (KRAS G12C) [µM] | MSRA (% modification) 5.0 μM 0.017 hr [1] [%] | MSRA (% modification) 10 μM 0.50 hr [1] [%]
C=CC(=O)N1CCN(c2nc(OC[C@@H]3C[C@H](OC)CN3C)nc3c(Oc4c(Cl)c(F)cc5[nH]ncc45)nccc23)CC1 [Example 12H, 1-[4-(8-[(5-chloro-6-fluoro-1H-indazol-4-yl)oxy]-2-{[(2S,4S)-4-methoxy-1-methylpyrrolidin-2-yl]methoxy}pyrido[3,4-d]pyrimidin-4-yl)piperazin-1-yl]prop-2-en-1-one] | 49 | 67 | 0.691 |  | 
C=CC(=O)N1CCN(c2nc(OCCNC(C)=O)nc3c(Oc4c(C)ccc5[nH]ncc45)cccc23)CC1 [Example 17F, N-[2-({4-(4-acryloylpiperazin-1-yl)-8-[(5-methyl-1H-indazol-4-yl)oxy]quinazolin-2-yl}oxy)ethyl]acetamide] |  | 36 | 4.59 |  | 60
C=CC(=O)N1CCN(c2nc(OC3CCN(C)CC3)nc3c(Oc4c(Cl)c(F)cc5[nH]ncc45)nccc23)CC1 [Example 16I, 1-(4-{8-[(5-chloro-6-fluoro-1H-indazol-4-yl)oxy]-2-[(1-methyl-piperidin-4-yl)oxy]pyrido [3,4-d]pyrimidin-4-yl}piperazin-1-yl)prop-2-en-1-one] | 48 |  | 0.582 |  | 
C=CC(=O)N1CCN(c2nc(NCc3nc(C)c[nH]3)nc3c(Oc4c(C)ccc5[nH]ncc45)cccc23)CC1 [Example 01F, 1-[4-(2-{[(4-methyl-1H-imidazol-2-yl)methyl]amino}-8-[(5-methyl-1H-indazol-4-yl)oxy]quinazolin-4-yl)piperazin-1-yl]prop-2-en-1-one] |  |  | 9.34 |  | 35
C=CC(=O)N1CCN(c2ncnc3c(Oc4c(Cl)ccc5[nH]ncc45)nccc23)CC1 [Example 06A, 1-(4-{8-[(5-chloro-1H-indazol-4-yl)oxy]pyrido[3,4-d]pyrimidin-4-yl}piperazin-1-yl)prop-2-en-1-one] |  |  | 6.75 |  | 26

The next molecules have a lower IC50 (KRAS G12C) than those just listed; values first:

MSRA (% modification) 5.0 μM 0.25 hr [1] [%] | MSRA (% modification) 10 μM 0.25 hr [1] [%] | IC50 (KRAS G12C) [µM] | MSRA (% modification) 5.0 μM 0.017 hr [1] [%] | MSRA (% modification) 10 μM 0.50 hr [1] [%] | SMILES
 |  | 0.348 | 12 |  | C=CC(=O)N1CCN(c2nc(O[C@@H]3COC[C@H]3N(C)C)nc3c(Oc4c(Cl)c(F)cc5[nH]ncc45)nccc23)CC1 (racemic) [Example 23I, rac-1-[4-(8-[(5-chloro-6-fluoro-1H-indazol-4-yl)oxy]-2-{[(3S,4R)-4-(dimethyl-amino)oxolan-3-yl]oxy}pyrido [3,4-d]pyrimidin-4-yl)piperazin-1-yl]prop-2-en-1-one]
 |  | 0.026 | 69 |  | C=CC(=O)N1CCN(c2nc(O[C@@H]3CN(CC)C[C@H]3OC)nc3c(Oc4c(Cl)c(F)cc5[nH]ncc45)nccc23)CC1 [Example 17H, 1-[4-(8-[(5-chloro-6-fluoro-1H-indazol-4-yl)oxy]-2-{[(3R,4R)-1-ethyl-4-methoxypyrrolidin-3-yl]oxy}pyrido[3,4-d]pyrimidin-4-yl)piperazin-1-yl]prop-2-en-1-on]
 |  | 0.008 | 70 |  | C=CC(=O)N1CCN(c2nc(Oc3cccc4c3CCN(C)C4)nc3c(Oc4c(Cl)c(Cl)cc5[nH]ncc45)nccc23)CC1 [Example 50I, 1-(4-{8-[(5,6-dichloro-1H-indazol-4-yl)oxy]-2-[(2-methyl-1,2,3,4-tetrahydro-isoquinolin-5-yl)oxy]pyrido [3,4-d]pyrimidin-4-yl}piperazin-1-yl)prop-2-en-1-one]
55 |  | 0.339 |  |  | C=CC(=O)N1CCN(c2nc(O[C@H]3CCOC3)nc3c(Oc4c(Cl)c(F)cc5[nH]ncc45)nccc23)CC1 [Example 01J, 1-(4-{8-[(5-chloro-6-fluoro-1H-indazol-4-yl)oxy]-2-[(3S)-tetrahydrofuran-3-yloxy]pyrido[3,4-d]pyrimidin-4-yl}piperazin-1-yl)prop-2-en-1-one]
